Measured values reported in US20070093520A1, “Method of treatment of diarrhea-predominant irritable bowel syndrome in a subject” (priority 2005, published 2007).

What was measured:
[1] = tested on: subjects with ROME II defined IBS-D; test: 5050 Study: IBS-QoL survey; format: in vivo, human; design: IBS-QoL subscale score: Interference with activity / IBS-QoL subscale score: Food avoidance / IBS-QoL subscale score: Sexual / IBS-QoL subscale score: Health Worry / IBS-QoL subscale score: Relationship / IBS-QoL subscale score: Body Image / IBS-QoL subscale score: Social Reaction / IBS-QoL subscale score: Dysphoria: scale not given here; settings: Study 5050
Protocol: The 5050 Study was a double-blind, randomized, placebo-controlled study to evaluate the long-term safety and tolerability of cilansetron 2 mg taken on an as needed (prn) basis for 1 year by male and female subjects with ROME II defined IBS-D. The study was performed in 68 centers. Patients were randomized in a 3:1 ratio to receive either cilansetron 2 mg prn or placebo, up to 3 times a day. Safety parameters were explored by comparing the double-blind groups, average daily doses and treatment exposure. Patient visits were scheduled as follows: Visit 1 (pretreatment), Visit 2 (Day 1), Visit 3 (Month 1), Visit 4 (Month 3), Visit 5 (Month 6), Visit 6 (Month 9), and Visit 7 (Month 12). Safety assessments included: adverse events (AEs)/serious adverse events (SAES); laboratory parameters (pretreatment visit and at Months 1, 6, and 12); electrocardiograms (pretreatment visit and at Months 1, 6, and 12); vital signs (at each visit); physical examinations and body weight (pretreatment visit and at Month 12); prior and concomitant medication use (each visit and/or through spontaneous reporting); stool cards for occult blood (every visit except Visit 1). The number of tablets taken per day was recorded daily through a validated interactive voice response system. Patients who met the ROME criteria for IBS and ROME II criteria for the diarrhea predominant subpopulation were included in the study. Patients with acute colitis of any etiology, history of chronic colitis of any etiology, or a history of intestinal obstruction, stricture, toxic megacolon, gastrointestinal (GI) perforation, or fecal impaction were excluded from the study.
Subjects were asked to complete a IBS-QOL Survey at Day 1 (Visit 5 of the core protocol), Month 6 and Month 12 (end of study or early termination) in order to assess possible changes of their QOL. The IBS-QoL survey, a 34 item IBS-specific QoL questionnaire consisting of 8 subscales (i.e., interference with activity; body image; health worry; food avoidance; social reaction; sexual; relationship; and dysphoria) was completed by patients at baseline and at later specified time points (e.g., at week 12 and at week 16 in Study 5050).

[2] = tested on: diarrhea-predominant IBS subjects; test: 3007 Study: 12-lead ECG abnormalities; format: in vivo, human; settings: Study 3007
Protocol: Resting 12-lead ECGs were performed at Day 1 (Visit 5 of the core protocol), Months 1, 6, and 12 (end of study or early termination visit). A centralized ECG service was used to evaluate all ECG tracings to supply consistent standardized ECG interpretation.
All analyses and summaries for ECG assessments were based on the evaluation performed in the central ECG laboratory.
For Study 3007, “baseline’ was defined as the pre-treatment period of core Study 3006 for subjects randomized to the cilansetron treatment group in Study 3006 and as the last post-Baseline visit of Study 3006 (normally Visit 5) for subjects randomized to the placebo group in Study 3006. The by-timepoint analyses were based on timepoints defined in Section 5.7.1.2.
Summary statistics are presented for PR, QRS, QT, and QTc intervals (Bazett and Fridericia formulas) and heart rate at each visit and at Endpoint, as well as for change from Baseline results at each post-Baseline visit and at Endpoint. Bazett's and Fridericia's QTc intervals were calculated based on the following formulas: Bazett: QTc intervals=QT/√RR Fridericia: QTc intervals=QT/^3√RR
Markedly abnormal ECG parameter values collected after the first dose of study medication and within 30 days of the last dose of study medication were summarized overall. The following criteria were applied to identify markedly abnormal parameter values: • PR ≧0.210 sec; • QRS ≧0.120 sec; • QTc >0.440 sec;
Heart rate ≧120 bpm or ≦50 bpm or change of ≧15 bpm.
The determination of markedly abnormal for QTc was carried out separately for both the Bazett correction and the Fridericia correction.
The incidence of treatment-emergent ECG abnormalities is presented overall and by type of abnormality. A treatment-emergent ECG abnormality was an abnormality identified by the ECG core laboratory that was not present at baseline (e.g., prior to the entry into core Study 3006), and was observed on or after initiation of study medication and up to 30 days after discontinuation of study medication. The incidence of treatment-emergent ECG abnormalities is presented by time interval, as well as overall for the entire treatment period. The incidence of treatment-emergent abnormalities is also presented in more general categories (e.g., presenting incidence of treatment-emergent myocardial infarction overall as well as by location), depending on whether it mitigates the interpretation.
The overall incidence of marked abnormalities for ECG parameters is presented overall by gender and overall.

[3] = Table 10.5, time point not stated

## Cc1nccn1C[C@H]1CCc2c(c3cccc4c3n2CCC4)C1=O [cilansetron, (R)-(−)-4,5,6,8,9,10-hexahydro-10-[(2-methyl-1H-imidazol-1-yl)methyl]-11H-pyrido-[3,2,1-jk]-carbazol-11-one]
[1]; [3]
  IBS-QoL subscale score: Body Image: 61.7
  IBS-QoL subscale score: Dysphoria: 47.4
  IBS-QoL subscale score: Food avoidance: 38.3
  IBS-QoL subscale score: Health Worry: 65.3
  IBS-QoL subscale score: Interference with activity: 41.1
  IBS-QoL subscale score: Relationship: 62.5
  IBS-QoL subscale score: Sexual: 72.2
  IBS-QoL subscale score: Social Reaction: 58.3
[1]; p<0.050
  change from baseline of IBS-QoL total score, interference with activity, body image, sexual score and dysphoria: significant improvement
[2]; female subjects
  marked ECG abnormality: decreased heart rate: 6%
  marked ECG abnormality: prolonged QTc(B): 23%
  marked ECG abnormality: prolonged QTc(F): 10%
  treatment-emergent ECG abnormality: early repolarization-normal variant: 2%
  treatment-emergent ECG abnormality: poor R-wave progression: 13%
  treatment-emergent ECG abnormality: sinus arrhythmia: 19%
[2]; male subjects
  marked ECG abnormality: decreased heart rate: 13%
  marked ECG abnormality: prolonged QTc(B): 6%
  marked ECG abnormality: prolonged QTc(F): 3%
  treatment-emergent ECG abnormality: early repolarization-normal variant: 19%
  treatment-emergent ECG abnormality: poor R-wave progression: 6%
  treatment-emergent ECG abnormality: sinus arrhythmia: 25%
[2]; overall
  incidence of prolonged QT interval: 4%
  marked ECG abnormality: heart rate decrease: 14%
  marked ECG abnormality: heart rate increase: 15%
  marked ECG abnormality: prolonged QTc(B): 17%
  subjects with a post-Baseline marked ECG abnormality: 50%
  subjects with a treatment-emergent ECG abnormality: 62%
  treatment-emergent ECG abnormality: borderline LA enlargement: 6%
  treatment-emergent ECG abnormality: early R-wave transition: 6%
  treatment-emergent ECG abnormality: early repolarization-normal variant: 8%
  treatment-emergent ECG abnormality: non-specific T-wave changes: 7%
  treatment-emergent ECG abnormality: poor R-wave progression: 11%
  treatment-emergent ECG abnormality: sinus arrhythmia: 21%
  treatment-emergent ECG abnormality: sinus bradycardia: 10%
